The results in this text go back to ChEMBL document CHEMBL4649996, “Selective inhibition of BET bromodomains” (Nature, 2010).

For orientation: ΔTm means the shift of the melting midpoint relative to a reference.

What all share (details): Compound concentration 10.0 uM, Protein concentration 2.0 uM
Assay [1] has as its target Bromodomain-containing protein 2 (Homo sapiens) (UniProt P25440).
The target is the same in assay [2]. The source holds these as a separate data set.
Assay [3] deals with Histone acetyltransferase KAT2B (Homo sapiens) (UniProt Q92831).
Sequence of Histone acetyltransferase KAT2B (Homo sapiens) (Q92831 whole entry, looked up): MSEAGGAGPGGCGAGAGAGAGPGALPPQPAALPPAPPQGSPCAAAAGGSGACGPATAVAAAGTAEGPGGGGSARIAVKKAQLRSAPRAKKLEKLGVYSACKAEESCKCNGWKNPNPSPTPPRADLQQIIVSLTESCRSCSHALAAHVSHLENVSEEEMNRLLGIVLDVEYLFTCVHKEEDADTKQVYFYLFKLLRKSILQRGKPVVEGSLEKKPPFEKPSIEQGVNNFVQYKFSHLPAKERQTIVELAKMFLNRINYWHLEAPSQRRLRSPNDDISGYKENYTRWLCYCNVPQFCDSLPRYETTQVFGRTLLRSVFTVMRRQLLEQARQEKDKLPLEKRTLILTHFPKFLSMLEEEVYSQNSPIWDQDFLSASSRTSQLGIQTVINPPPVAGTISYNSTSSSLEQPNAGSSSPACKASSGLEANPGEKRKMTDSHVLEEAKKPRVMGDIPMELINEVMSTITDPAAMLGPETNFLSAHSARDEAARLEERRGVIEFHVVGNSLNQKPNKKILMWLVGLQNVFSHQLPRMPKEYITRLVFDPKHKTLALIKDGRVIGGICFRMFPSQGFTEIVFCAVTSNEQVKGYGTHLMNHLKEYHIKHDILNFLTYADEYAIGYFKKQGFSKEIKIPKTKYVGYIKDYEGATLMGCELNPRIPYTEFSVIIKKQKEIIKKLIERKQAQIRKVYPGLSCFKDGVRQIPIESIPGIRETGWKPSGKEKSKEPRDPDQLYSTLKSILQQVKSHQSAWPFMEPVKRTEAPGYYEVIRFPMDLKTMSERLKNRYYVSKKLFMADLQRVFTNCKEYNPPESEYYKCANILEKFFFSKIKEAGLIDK
The target of assay [4] is Nuclear body protein SP140-like protein (Homo sapiens) (UniProt Q9H930).
Sequence of Nuclear body protein SP140-like protein (Homo sapiens) (Q9H930 whole entry): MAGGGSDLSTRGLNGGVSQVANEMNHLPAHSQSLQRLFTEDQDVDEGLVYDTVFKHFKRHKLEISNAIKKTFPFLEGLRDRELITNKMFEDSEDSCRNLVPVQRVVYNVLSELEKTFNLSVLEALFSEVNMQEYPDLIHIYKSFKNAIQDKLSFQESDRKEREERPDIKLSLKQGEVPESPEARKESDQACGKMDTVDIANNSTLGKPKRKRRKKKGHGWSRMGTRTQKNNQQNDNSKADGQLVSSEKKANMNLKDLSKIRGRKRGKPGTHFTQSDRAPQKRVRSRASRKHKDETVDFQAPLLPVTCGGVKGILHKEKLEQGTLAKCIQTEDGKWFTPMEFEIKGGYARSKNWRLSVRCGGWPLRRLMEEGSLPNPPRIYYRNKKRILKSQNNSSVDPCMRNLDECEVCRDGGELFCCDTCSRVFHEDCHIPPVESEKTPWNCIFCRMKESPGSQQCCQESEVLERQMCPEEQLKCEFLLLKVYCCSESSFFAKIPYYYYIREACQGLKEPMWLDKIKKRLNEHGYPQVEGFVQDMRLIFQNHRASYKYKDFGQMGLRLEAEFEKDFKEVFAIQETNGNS

Sequence of Bromodomain-containing protein 2 (Homo sapiens) (P25440 whole entry, looked up): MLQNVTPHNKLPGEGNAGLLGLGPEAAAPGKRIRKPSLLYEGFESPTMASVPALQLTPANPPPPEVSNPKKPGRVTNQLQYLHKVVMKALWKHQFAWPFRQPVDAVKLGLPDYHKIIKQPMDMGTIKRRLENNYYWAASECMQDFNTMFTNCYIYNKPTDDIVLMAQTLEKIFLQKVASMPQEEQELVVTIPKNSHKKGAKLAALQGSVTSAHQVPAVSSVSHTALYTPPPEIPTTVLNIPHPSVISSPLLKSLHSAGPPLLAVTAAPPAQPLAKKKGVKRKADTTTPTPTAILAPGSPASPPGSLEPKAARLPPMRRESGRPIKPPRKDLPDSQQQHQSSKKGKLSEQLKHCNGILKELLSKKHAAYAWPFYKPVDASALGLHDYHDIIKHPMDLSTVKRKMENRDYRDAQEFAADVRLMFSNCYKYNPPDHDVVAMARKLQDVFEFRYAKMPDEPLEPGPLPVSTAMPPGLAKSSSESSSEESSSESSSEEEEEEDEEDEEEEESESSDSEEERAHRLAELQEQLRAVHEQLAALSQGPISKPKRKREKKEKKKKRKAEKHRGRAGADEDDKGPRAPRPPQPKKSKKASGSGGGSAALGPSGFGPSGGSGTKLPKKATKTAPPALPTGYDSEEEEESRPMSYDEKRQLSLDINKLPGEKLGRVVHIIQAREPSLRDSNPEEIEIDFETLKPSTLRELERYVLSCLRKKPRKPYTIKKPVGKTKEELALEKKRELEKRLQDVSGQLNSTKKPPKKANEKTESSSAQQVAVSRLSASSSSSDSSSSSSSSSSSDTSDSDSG

For the compound `Cc1sc2c(c1C)C(c1ccc(Cl)cc1)=N[C@@H](CC(=O)OC(C)(C)C)c1nnc(C)n1-2`, the ΔTm in assay [1] is 5.58 °C; in assay [2], 8.16 °C; in assay [3], 0.7 °C; in assay [4], -0.07 °C.
